These compounds were tested on human liver cancer-derived cell line Hep3B (assay: In vitro erythropoietin (EPO) induction activity in Hep3B cells (human EPO ELISA of culture supernatant)). Settings: test compound 12.5 μM, Hep3B cells cultured 24 hours at 37° C., multiple of the EPO concentration in the control (0.5% DMSO = 1).
Assay type: cell-based
Experimental: In vitro erythropoietin (EPO) induction activity of test compounds was evaluated using human liver cancer-derived cell line Hep3B (ATCC, Manassas, Va.). Hep3B cells were cultured overnight at 37° C. in Dulbecco's modified Eagle's medium (DMEM) in the presence of 10% fetal bovine serum (FBS) (24-well plate, 1.0×10^5 cells/well). After replacing with fresh DMEM (+10% FBS) containing a test compound dissolved in 0.5% dimethyl sulfoxide (DMSO) (prepared to a concentration of 12.5 μM) or a solvent control (0.5% DMSO), the cells were cultured for 24 hours at 37° C. After recovering the culture supernatant, EPO concentration in the culture supernatant was quantified using a human EPO ELISA kit (StemCell Technologies).
The EPO concentration in the case of using a compound of each example as a test compound was expressed as a multiple of the EPO concentration in the control.
With `Cc1nc(CC2CCN(c3ccc(-c4ccc(C(F)(F)CO)cc4)cc3)CC2)nc(C(=O)NCC(=O)O)c1O` [Example 30, ({[2-{(1-[4′-(1,1-Difluoro-2-hydroxyethyl)biphenyl-4-yl]piperidin-4-yl}methyl)-5-hydroxy-6-methylpyrimidin-4-yl]carbonyl}amino)acetic acid] the fold induction at 12.5 µM was 23. Work on `Cc1nc(CC2CCN(c3ccc(-c4ccc(C(C)O)cc4)cc3)CC2)nc(C(=O)NCC(=O)O)c1O` (centres unmarked) [Example 3, ({[5-Hydroxy-2-{(1-[4′-(1-hydroxyethyl)biphenyl-4-yl]piperidin-4-yl}methyl)-6-methylpyrimidin-4-yl]carbonyl}amino)acetic acid] yielded a fold induction at 12.5 µM of 24. `Cc1nc(CC2CCN(c3ccc(-c4ccc(CO)c(F)c4)cc3)CC2)nc(C(=O)NCC(=O)O)c1O` [Example 37, ({[2-({1-[3′-Fluoro-4′-(hydroxymethyl)biphenyl-4-yl]piperidin-4-yl}methyl)-5-hydroxy-6-methylpyrimidin-4-yl]carbonyl}amino)acetic acid] was tested, and the fold induction at 12.5 µM was 31. For `CC[C@@H](O)Cc1ccc(-c2ccc(N3CCC(Cc4nc(C)c(O)c(C(=O)NCC(=O)O)n4)CC3)cc2)cc1` [Example 48, [({5-Hydroxy-2-[(1-{4′-[(2R)-2-hydroxybutyl]biphenyl-4-yl}piperidin-4-yl)methyl]-6-methylpyrimidin-4-yl}carbonyl)amino]acetic acid], the fold induction at 12.5 µM was 42. For `Cc1nc(CC2CCN(c3ccc(-c4ccc(CO)cc4)cc3)CC2)nc(C(=O)NCC(=O)O)c1O` [Example 1, ({[5-Hydroxy-2-{(1-[4′-(hydroxymethyl)biphenyl-4-yl]piperidin-4-yl}methyl)-6-methylpyrimidin-4-yl]carbonyl}amino)acetic acid], the fold induction at 12.5 µM was 55. In the case of `Cc1nc(CC2CCN(c3ccc(-c4cc(F)c(CO)c(F)c4)cc3)CC2)nc(C(=O)NCC(=O)O)c1O` [Example 41, ({[2-({1-[3′,5′-Difluoro-4′-(hydroxymethyl)biphenyl-4-yl]piperidin-4-yl}methyl)-5-hydroxy-6-methylpyrimidin-4-yl]carbonyl}amino)acetic acid], the fold induction at 12.5 µM is reported as 20. Work on `Cc1nc(CC2CCN(c3ccc(-c4ccc(CO)cc4)c(F)c3)CC2)nc(C(=O)NCC(=O)O)c1O` [Example 38, ({[2-({1-[2-Fluoro-4′-(hydroxymethyl)biphenyl-4-yl]piperidin-4-yl}methyl)-5-hydroxy-6-methylpyrimidin-4-yl]carbonyl}amino)acetic acid] yielded a fold induction at 12.5 µM of 24. `Cc1nc(CC2CCN(c3ccc(-c4ccc(CC(=O)N(C)C)cc4)cc3)CC2)nc(C(=O)NCC(=O)O)c1O` [Example 9, [({2-[(1-{4′-[2-(Dimethylamino)-2-oxoethyl]biphenyl-4-yl}piperidin-4-yl)methyl]-5-hydroxy-6-methylpyrimidin-4-yl}carbonyl)amino]acetic acid] showed a fold induction at 12.5 µM of 36. For `Cc1nc(CC2CCN(c3ccc(-c4ccc(CC(C)O)cc4)cc3)CC2)nc(C(=O)NCC(=O)O)c1O` (centres unmarked) [Example 5, ({[5-Hydroxy-2-{(1-[4′-(2-hydroxypropyl)biphenyl-4-yl]piperidin-4-yl}methyl)-6-methylpyrimidin-4-yl]carbonyl}amino)acetic acid], the fold induction at 12.5 µM was 48. With `Cc1nc(CC2CCN(c3ccc(-c4ccc(C[C@H](C)O)cc4)cc3)CC2)nc(C(=O)NCC(=O)O)c1O` [Example 45, [({5-Hydroxy-2-[(1-{4′-[(2S)-2-hydroxypropyl]biphenyl-4-yl}piperidin-4-yl)methyl]-6-methylpyrimidin-4-yl}carbonyl)amino]acetic acid] the fold induction at 12.5 µM was 41. For `Cc1cc(-c2ccc(N3CCC(Cc4nc(C)c(O)c(C(=O)NCC(=O)O)n4)CC3)cc2C)ccc1CO` [Example 26, ({[5-Hydroxy-2-({1-[4′-(hydroxymethyl)-2,3′-dimethylbiphenyl-4-yl]piperidin-4-yl}methyl)-6-methylpyrimidin-4-yl]carbonyl}amino)acetic acid], the fold induction at 12.5 µM was 13. With `COCc1ccc(-c2ccc(N3CCC(Cc4nc(C)c(O)c(C(=O)NCC(=O)O)n4)CC3)cc2)cc1` [Example 35, ({[5-Hydroxy-2-{(1-[4′-(methoxymethyl)biphenyl-4-yl]piperidin-4-yl}methyl)-6-methylpyrimidin-4-yl]carbonyl}amino)acetic acid] the fold induction at 12.5 µM was 53. `Cc1nc(CC2CCN(c3ccc(-c4ccc(C[C@@H](C)O)cc4)cc3)CC2)nc(C(=O)NCC(=O)O)c1O` [Example 46, [({5-Hydroxy-2-[(1-{4′-[(2R)-2-hydroxypropyl]biphenyl-4-yl}piperidin-4-yl)methyl]-6-methylpyrimidin-4-yl}carbonyl)amino]acetic acid] gave a fold induction at 12.5 µM of 45. For `[2H]C([2H])(O)c1ccc(-c2ccc(N3CCC(Cc4nc(C)c(O)c(C(=O)NCC(=O)O)n4)CC3)cc2)cc1` [Example 44, ({[5-Hydroxy-2-{(1-[4′-(hydroxymethyl)biphenyl-4-yl]piperidin-4-yl}methyl)-6-methylpyrimidin-4-yl]carbonyl}amino)acetic acid-d2], the fold induction at 12.5 µM was 26. `CCOC(=O)c1ccc(-c2ccc(N3CCC(Cc4nc(C)c(O)c(C(=O)NCC(=O)O)n4)CC3)cc2)nc1` [Example 16, [({2-[(1-{4-[5-(Ethoxycarbonyl)pyridin-2-yl]phenyl}piperidin-4-yl)methyl]-5-hydroxy-6-methylpyrimidin-4-yl}carbonyl)amino]acetic acid] showed a fold induction at 12.5 µM of 47. `Cc1nc(CC2CCN(c3ccc(-c4cc(Cl)c(CO)c(Cl)c4)cc3)CC2)nc(C(=O)NCC(=O)O)c1O` [Example 42, ({[2-{(1-[3′,5′-Dichloro-4′-(hydroxymethyl)biphenyl-4-yl]piperidin-4-yl}methyl)-5-hydroxy-6-methylpyrimidin-4-yl]carbonyl}amino)acetic acid] showed a fold induction at 12.5 µM of 28. In the case of `Cc1nc(CC2CCN(c3ccc(-c4ccc(CO)cc4)cc3F)CC2)nc(C(=O)NCC(=O)O)c1O` [Example 39, ({[2-{(1-[3-Fluoro-4′-(hydroxymethyl)biphenyl-4-yl]piperidin-4-yl}methyl)-5-hydroxy-6-methylpyrimidin-4-yl]carbonyl}amino)acetic acid], the fold induction at 12.5 µM is reported as 18. In the case of `CNC(=O)c1ccc(-c2ccc(N3CCC(Cc4nc(C)c(O)c(C(=O)NCC(=O)O)n4)CC3)cc2)cc1` [Example 8, ({[5-Hydroxy-6-methyl-2-{(1-[4′-(methylcarbamoyl)biphenyl-4-yl]piperidin-4-yl}methyl)pyrimidin-4-yl]carbonyl}amino)acetic acid], the fold induction at 12.5 µM is reported as 94. Work on `Cc1nc(CC2CCN(c3ccc(-c4ccc(C(C)(C)CO)cc4)cc3)CC2)nc(C(=O)NCC(=O)O)c1O` [Example 6, ({[5-Hydroxy-2-{(1-[4′-(2-hydroxy-1,1-dimethylethyl)biphenyl-4-yl]piperidin-4-yl}methyl)-6-methylpyrimidin-4-yl]carbonyl}amino)acetic acid] yielded a fold induction at 12.5 µM of 36. Work on `Cc1nc(CC2CCN(c3ccc(-c4ccc(CO)c(Cl)c4)cc3)CC2)nc(C(=O)NCC(=O)O)c1O` [Example 24, ({[2-{(1-[3′-Chloro-4′-(hydroxymethyl)biphenyl-4-yl]piperidin-4-yl}methyl)-5-hydroxy-6-methylpyrimidin-4-yl]carbonyl}amino)acetic acid] yielded a fold induction at 12.5 µM of 30.

Reference: US8785462B2, “5-hydroxypyrimidine-4-carboxamide derivative” (Daiichi Sankyo Company, Limited, priority 2009, dated 2014)
